Laboratory results from paper PMC12121777 (PLOS One, 2025).
Values after ≈ are worked out from the molar mass of the structure shown. Where two headings read alike, the source gives them in different places.

Tests used:
[1] = test system: Mtb 331/88 (i.e., H37Rv); assay: MIC, micro method in Šula's semisynthetic medium, drug-susceptible Mtb; format: cell-based, Mycobacterium tuberculosis; conditions: Mycobacterium tuberculosis, H37RV
[2] = test system: Mycobacterium avium 330/88; assay: MIC, micro method in Šula's semisynthetic medium, M. avium; format: cell-based
[3] = test system: Mycobacterium kansasii 6509/96; assay: MIC, micro method in Šula's semisynthetic medium, M. kansasii clinical isolate; format: cell-based; conditions: read-out: MIC M. kansasii 6509/96
[4] = test system: Mtb H37Ra pVV2; assay: microbe, parasite or virus in culture; format: cell-based; conditions: Mycobacterium tuberculosis, 672 h, 28 days
[5] = test system: Mtb H37Ra pVV2-dprE2; assay: microbe, parasite or virus in culture; format: cell-based; conditions: Mycobacterium tuberculosis, 672 h, 28 days
[6] = test system: Mtb H37Ra pVV2-dprE1/dprE2; assay: microbe, parasite or virus in culture; format: cell-based; conditions: Mycobacterium tuberculosis, 672 h, 28 days
[7] = test system: HepG2 cells; assay: Cytotoxicity on HepG2 cell line (CellTiter 96); format: cell-based, human; conditions: Homo sapiens, HepG2, 24 h, read-out: IC50 HepG2
[8] = test system: Danio rerio embryos; assay: Fish embryo test (FET); format: in vivo; conditions: for mortality: as early as 48 h; for lethality: end of the 96 hours; for observed lethal endpoints: 0.001–100 µM, 96-hour exposure; for embryo coagulation, share of all observed endpoints: whole exposure period
Procedure: Fish maintenance. A day before the experiment, adult wild-type zebrafish (Danio rerio) were transferred into plastic spawning cages at the end of the 14-hour photoperiod. All fish were spawned at the onset of the following photoperiod. Fertilized eggs were collected within 30 minutes post-fertilization and inspected for health state and developmental stage using a stereomicroscope before exposure to 5g and 4h. Tested compounds were dissolved in DMSO; its concentration in 1 mM stock solution was 0.5%.
Fish embryo test (FET). Fish embryo tests were carried out using six different concentrations (0.001, 0.01, 0.1, 1, 10, and 100 μM) of each of the tested substances and controls over 96 hours at a constant temperature of 26.9°C (±1°C) under semi-static experimental set-up. The used medium was E3 according to Cold Spring Harbor Protocols (5 mM NaCl, 0.17 mM KCl, 0.33 mM CaCl2, 0.33 mM MgSO4). Each FET consists of 24 embryos per concentration, where each embryo is considered an individual replicate. Before the tests, all wells in the testing culture well plates were saturated by overnight incubation with corresponding concentrations of 5g and 4h. Before loading the embryos into the well plates, all solutions were replaced by freshly aerated ones with corresponding concentrations or controls. All solutions in the well plates were changed again after 48 hours of exposure to minimize a potential reduction in oxygen levels and compound concentration. Fish embryos were inspected and scored for mortality, morphological changes, or hatching success rates at 24-, 48-, 72-, and 96-hours post-exposure (hpe) under an inverted microscope (Olympus IX71; Olympus Czech Group, s.r.o., Czech Republic). […] In comparison, > 90% of the embryos in the positive control (3,4-dichloroaniline) were considered dead at the end of the 96-hour exposure. Morphological endpoints in our analysis were: (1) coagulation of fertilised eggs or developing embryos; (2) lack of somite formation; (3) lack of detachment of the tail bud from the yolk sac; (4) lack of heartbeat or heart defects (oedema); (5) malformations of body parts (head and tail region); (6) growth retardation. All morphological endpoints were used to determine the mortality (a positive endpoint means the embryo was considered dead).
For both compounds, the negative controls involved pure E3 medium and E3 medium containing 0.05% DMSO.

[9] = test system: Mtb H37Rv; assay: Metabolic labeling with 14C acetate and TLC lipid analysis; conditions: 10× and 100× MIC, 14C acetate, 24 h
[10] = test system: Mtb; set-up: method as in PMID 33462533; conditions: cited from earlier work
[11] = test system: Staphylococcus aureus; set-up: method as in PMID 30988267; conditions: cited from earlier work
[12] = 330/88, 336 h, read-out: MIC M. avium 330/88
[13] = 330/88, 504 h, read-out: MIC M. avium 330/88

SMILES: CCCCCCCCNC(=O)NNC(=O)c1cc([N+](=O)[O-])cc([N+](=O)[O-])c1 [Compound 4h, 2-(3,5-Dinitrobenzoyl)-N-octylhydrazine-1-carboxamide]
- MIC ([1]; 336 h, 14 days): 0.25 µM (≈ 0.0953 µg/mL)
- MIC ([1]; 504 h, 21 days): 0.5 µM (≈ 0.191 µg/mL)
- MIC [2, 12]: 125 µM (≈ 47.7 µg/mL)
- MIC [2, 13]: 250 µM (≈ 95.3 µg/mL)
- MIC ([2]; 330/88, read-out: MIC M. avium): 125 to 250 µM (≈ 47.7 to 95.3 µg/mL)
- MIC ([3]; 6509/96, 168 h): 1 µM (≈ 0.381 µg/mL)
- MIC ([3]; 6509/96, 336 h): 1 µM (≈ 0.381 µg/mL)
- MIC ([3]; 6509/96, 504 h): 1 µM (≈ 0.381 µg/mL)
- MIC [4]: < 0.5 µM
- MIC [5]: < 0.5 µM
- MIC [6]: > 2.5 µM
- IC50 [7]: 136 µM
- mortality at 1 µM [8]: no significant mortality
- mortality ([8]; 10 µM): 100%
- mortality ([8]; 100 µM): 100%
- lethality ([8]; 100 µM): 100%
- observed lethal endpoints [8]: embryo coagulation and growth retardation
- embryo coagulation, share of all observed endpoints [8]: > 35%
- lipid profile of treated cells vs untreated cells [9]: accumulation of TMM and TDM

SMILES: O=c1nc(N2CCN(CC3CCCCC3)CC2)sc2c([N+](=O)[O-])cc(C(F)(F)F)cc12 [macozinone]
- MIC for Mtb [10]: 0.002 µM

SMILES: CCCCNC(=O)NNC(=O)c1cc([N+](=O)[O-])cc([N+](=O)[O-])c1 [Compound 4d, N-Butyl-2-(3,5-dinitrobenzoyl)hydrazine-1-carboxamide]
- MIC ([1]; 336 h, 14 days): 2 µM (≈ 0.651 µg/mL)
- MIC ([1]; 504 h, 21 days): 2 µM (≈ 0.651 µg/mL)
- MIC [2, 12]: 1000 µM (≈ 325 µg/mL)
- MIC [2, 13]: 1000 µM (≈ 325 µg/mL)
- MIC ([3]; 6509/96, 168 h): 2 µM (≈ 0.651 µg/mL)
- MIC ([3]; 6509/96, 336 h): 4 µM (≈ 1.3 µg/mL)
- MIC ([3]; 6509/96, 504 h): 4 µM (≈ 1.3 µg/mL)
- IC50 [7]: 198 µM

SMILES: CCCCCCCNc1nnc(-c2cc([N+](=O)[O-])cc([N+](=O)[O-])c2)o1 [Compound 5g, 5-(3,5-Dinitrophenyl)-N-heptyl-1,3,4-oxadiazol-2-amine]
- MIC ([1]; 336 h, 14 days): ≤ 0.03 µM
- MIC ([1]; 504 h, 21 days): ≤ 0.03 µM
- MIC [2, 12]: 4 µM (≈ 1.4 µg/mL)
- MIC [2, 13]: 8 µM (≈ 2.79 µg/mL)
- MIC ([3]; 6509/96, 168 h): ≤ 0.03 µM
- MIC ([3]; 6509/96, 336 h): 0.06 µM (≈ 0.021 µg/mL)
- MIC ([3]; 6509/96, 504 h): 0.125 µM (≈ 0.0437 µg/mL)
- MIC [4]: < 0.06 µM
- MIC [5]: < 0.06 µM
- MIC [6]: > 0.3 µM
- IC50 [7]: > 100 µM
- mortality at 1 µM [8]: no significant mortality
- mortality ([8]; 10 µM): 100%
- mortality ([8]; 100 µM): 100%
- lethality ([8]; 100 µM): 100%
- observed lethal endpoints [8]: pericardial oedema at lower concentrations and by growth retardation at higher concentrations
- embryo coagulation, share of all observed endpoints [8]: > 25%
- lipid profile of treated cells vs untreated cells [9]: accumulation of TMM and TDM

SMILES: CCCCCCCCCCCCNC(=S)NNC(=O)c1cc([N+](=O)[O-])cc([N+](=O)[O-])c1 [Compound 4s, 2-(3,5-Dinitrobenzoyl)-N-dodecylhydrazine-1-carbothioamide]
- MIC ([1]; 336 h, 14 days): 2 µM (≈ 0.907 µg/mL)
- MIC ([1]; 504 h, 21 days): 2 µM (≈ 0.907 µg/mL)
- MIC [2, 12]: 16 µM (≈ 7.26 µg/mL)
- MIC [2, 13]: 16 µM (≈ 7.26 µg/mL)
- MIC ([3]; 6509/96, 168 h): 1 µM (≈ 0.454 µg/mL)
- MIC ([3]; 6509/96, 336 h): 1 µM (≈ 0.454 µg/mL)
- MIC ([3]; 6509/96, 504 h): 2 µM (≈ 0.907 µg/mL)
- MIC [4]: 2 µM (≈ 0.907 µg/mL)
- MIC [5]: 2 µM (≈ 0.907 µg/mL)
- MIC [6]: > 4 µM
- lipid profile of treated cells vs untreated cells [9]: accumulation of TMM and TDM

SMILES: CCCCCCCCCCCCCCCNc1nnc(-c2cc([N+](=O)[O-])cc([N+](=O)[O-])c2)o1 [Compound 5o, 5-(3,5-Dinitrophenyl)-N-pentadecyl-1,3,4-oxadiazol-2-amine]
- MIC ([1]; 336 h, 14 days): 2 µM (≈ 0.923 µg/mL)
- MIC ([1]; 504 h, 21 days): 2 µM (≈ 0.923 µg/mL)
- MIC [2, 12]: 8 µM (≈ 3.69 µg/mL)
- MIC [2, 13]: 16 µM (≈ 7.39 µg/mL)
- MIC ([3]; 6509/96, 168 h): 0.5 µM (≈ 0.231 µg/mL)
- MIC ([3]; 6509/96, 336 h): 1 µM (≈ 0.462 µg/mL)
- MIC ([3]; 6509/96, 504 h): 2 µM (≈ 0.923 µg/mL)
- IC50 [7]: > 50 µM

SMILES: CCCCCCCCCCCCNc1nnc(-c2cc([N+](=O)[O-])cc([N+](=O)[O-])c2)s1 [Compound 5s, 5-(3,5-Dinitrophenyl)-N-dodecyl-1,3,4-thiadiazol-2-amine]
- MIC ([1]; 336 h, 14 days): 1 µM (≈ 0.436 µg/mL)
- MIC ([1]; 504 h, 21 days): 1 µM (≈ 0.436 µg/mL)
- MIC [2, 12]: 64 µM (≈ 27.9 µg/mL)
- MIC [2, 13]: 125 µM (≈ 54.4 µg/mL)
- MIC ([3]; 6509/96, 168 h): 1 µM (≈ 0.436 µg/mL)
- MIC ([3]; 6509/96, 336 h): 1 µM (≈ 0.436 µg/mL)
- MIC ([3]; 6509/96, 504 h): 1 µM (≈ 0.436 µg/mL)
- MIC [4]: < 0.1 µM
- MIC [5]: < 0.1 µM
- MIC [6]: 0.5 µM (≈ 0.218 µg/mL)
- lipid profile of treated cells vs untreated cells [9]: accumulation of TMM and TDM

SMILES: Cc1ccc(C(=O)Nc2nnc(-c3ccc(C)cc3)o2)cc1 [VIII]
- MIC [11]: 1560 µg/mL (≈ 5.32 mM)
